Test results as given in ChEMBL document CHEMBL1201862, “PubChem BioAssay data set” (2004).
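Five compound concentrations were applied to cells in 96-well plates for 48 hours; endpoints were derived by simple linear interpolation of the resulting dose-response curve. Here, GI50 denotes the concentration required for 50% inhibition of growth.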 The source made the active and inactive calls. Rule as the data show it: active = GI50 up to about 1.1 µM and inactive = higher.

Legend:
Assay in all cases: growth of human tumour cells (NCI), 48 h
SK-MEL-2 = tested on: SK-MEL-2
HCC 2998 = tested on: HCC 2998
SW-620 = tested on: SW-620
TK-10 = tested on: TK-10
OVCAR-5 = tested on: OVCAR-5
K562 = tested on: K562
MDA-N = tested on: MDA-N
MCF7 = tested on: MCF7
T47D = tested on: T47D
NCI-H226 = tested on: NCI-H226
SK-MEL-5 = tested on: SK-MEL-5
SNB-75 = tested on: SNB-75
SF-539 = tested on: SF-539
SN12C = tested on: SN12C
Hs-578T = tested on: Hs-578T
CAKI-1 = tested on: CAKI-1
SF-268 = tested on: SF-268
LOX IMVI = tested on: LOX IMVI
PC-3 = tested on: PC-3
HT-29 = tested on: HT-29

SMILES | GI50 (SK-MEL-2) | GI50 (HCC 2998) | GI50 (SW-620) | GI50 (TK-10) | GI50 (OVCAR-5) | GI50 (K562) | GI50 (MDA-N) | GI50 (MCF7) | GI50 (T47D) | GI50 (NCI-H226) | GI50 (SK-MEL-5) | GI50 (SNB-75) | GI50 (SF-539) | GI50 (SN12C) | GI50 (Hs-578T) | GI50 (CAKI-1) | GI50 (SF-268) | GI50 (LOX IMVI) | GI50 (PC-3) | GI50 (HT-29)
COc1cc(C2C3=C(COC3=O)Oc3cc4c(cc32)OCO4)cc(OC)c1OC (stereo unspecified) | 0.039 µM (active) | 0.0402 µM (active) | 0.0173 µM (active) | > 10 µM (inactive) | 0.274 µM (active) | 0.0108 µM (active) | 0.0219 µM (active) | 0.0423 µM (active) | > 10 µM (inactive) | 0.123 µM (active) | 0.0198 µM (active) | 0.00993 µM (active) | 0.0218 µM (active) | 0.0515 µM (active) | 0.0521 µM (active) | 0.01 µM (active) | 0.0417 µM (active) | < 0.0164 µM (active) | 0.0331 µM (active) | –
CC(=O)O[C@H]1CC[C@H]2[C@@H]3CCc4cc(O)c(I)cc4[C@H]3CC[C@]12C | 19 µM (inactive) | 15 µM (inactive) | 13 µM (inactive) | 19.3 µM (inactive) | 18.2 µM (inactive) | 10.6 µM (inactive) | 15.9 µM (inactive) | 17 µM (inactive) | 14.7 µM (inactive) | 14.9 µM (inactive) | 3.83 µM (inactive) | 13.4 µM (inactive) | 15.2 µM (inactive) | – | 14.9 µM (inactive) | 16.1 µM (inactive) | 13.8 µM (inactive) | 15.1 µM (inactive) | 6.12 µM (inactive) | 17.7 µM (inactive)
CC1(CCC(=O)OC2CCCCC2)OCCO1 | > 100 µM (inactive) | – | > 100 µM (inactive) | > 100 µM (inactive) | > 100 µM (inactive) | > 100 µM (inactive) | > 100 µM (inactive) | > 100 µM (inactive) | > 100 µM (inactive) | > 100 µM (inactive) | > 100 µM (inactive) | > 100 µM (inactive) | > 100 µM (inactive) | > 100 µM (inactive) | > 100 µM (inactive) | > 100 µM (inactive) | > 100 µM (inactive) | > 100 µM (inactive) | > 100 µM (inactive) | > 100 µM (inactive)
O=C(/C=C/c1ccccc1)c1cc(Br)ccc1O | 21.4 µM (inactive) | 17.5 µM (inactive) | 21 µM (inactive) | 17.6 µM (inactive) | 22.3 µM (inactive) | 4.28 µM (inactive) | 15 µM (inactive) | 10.8 µM (inactive) | 8.45 µM (inactive) | 12.9 µM (inactive) | 15.3 µM (inactive) | 15.4 µM (inactive) | – | 15.1 µM (inactive) | 21.2 µM (inactive) | 15.8 µM (inactive) | 16.9 µM (inactive) | 12.2 µM (inactive) | 17.1 µM (inactive) | 16.6 µM (inactive)
Cc1ccc(-n2nnc(C#N)c2O)cc1 | > 100 µM (inactive) | > 100 µM (inactive) | > 100 µM (inactive) | > 100 µM (inactive) | > 100 µM (inactive) | > 100 µM (inactive) | > 100 µM (inactive) | > 100 µM (inactive) | > 100 µM (inactive) | > 100 µM (inactive) | > 100 µM (inactive) | > 100 µM (inactive) | – | > 100 µM (inactive) | > 100 µM (inactive) | 93.3 µM (inactive) | > 100 µM (inactive) | – | > 100 µM (inactive) | > 100 µM (inactive)
[N-]=[N+]=NC1=C(c2ccccn2)C(=O)c2cccc3cccc1c23 | 43.5 µM (inactive) | 57.5 µM (inactive) | 22.9 µM (inactive) | 41.7 µM (inactive) | 79.6 µM (inactive) | 23.2 µM (inactive) | 53.8 µM (inactive) | 23.6 µM (inactive) | > 100 µM (inactive) | – | 6.84 µM (inactive) | 29 µM (inactive) | 32.8 µM (inactive) | 20.8 µM (inactive) | 27 µM (inactive) | 26.7 µM (inactive) | 12 µM (inactive) | 8.65 µM (inactive) | 39.3 µM (inactive) | 21.1 µM (inactive)
Nc1nc2c(ncn2CC2CCC(CO)C2)c(=O)[nH]1 (stereo unspecified) | > 100 µM (inactive) | > 100 µM (inactive) | > 100 µM (inactive) | > 100 µM (inactive) | > 100 µM (inactive) | > 100 µM (inactive) | > 100 µM (inactive) | > 100 µM (inactive) | > 100 µM (inactive) | > 100 µM (inactive) | > 100 µM (inactive) | > 100 µM (inactive) | > 100 µM (inactive) | > 100 µM (inactive) | > 100 µM (inactive) | > 100 µM (inactive) | > 100 µM (inactive) | > 100 µM (inactive) | > 100 µM (inactive) | –
COC1=C(OC)C(=O)C(C/C=C/c2c(Cl)nc3sccn23)=C(C)C1=O | 16.4 µM (inactive) | 18.2 µM (inactive) | 21.3 µM (inactive) | 15 µM (inactive) | 16.9 µM (inactive) | 19.8 µM (inactive) | 6.38 µM (inactive) | 5.19 µM (inactive) | 7.74 µM (inactive) | – | 1.32 µM (inactive) | – | 17.2 µM (inactive) | 16.6 µM (inactive) | 20.5 µM (inactive) | 12.2 µM (inactive) | 16 µM (inactive) | 2.24 µM (inactive) | 11.8 µM (inactive) | 20.7 µM (inactive)
CSC(SC)=C(C#N)C(=O)Nc1ccc(C)cc1 | > 100 µM (inactive) | > 100 µM (inactive) | > 100 µM (inactive) | > 100 µM (inactive) | > 100 µM (inactive) | 75.3 µM (inactive) | > 100 µM (inactive) | 71.9 µM (inactive) | > 100 µM (inactive) | > 100 µM (inactive) | > 100 µM (inactive) | – | > 100 µM (inactive) | > 100 µM (inactive) | > 100 µM (inactive) | 42.8 µM (inactive) | > 100 µM (inactive) | > 100 µM (inactive) | > 100 µM (inactive) | > 100 µM (inactive)
Cc1nc2c(sc3nc4c(cc32)CCC4)c(=O)o1 | > 100 µM (inactive) | 28.6 µM (inactive) | > 59.7 µM (inactive) | > 64.6 µM (inactive) | > 95.1 µM (inactive) | 57.9 µM (inactive) | 38.7 µM (inactive) | > 81.3 µM (inactive) | > 78 µM (inactive) | > 96.2 µM (inactive) | 37.5 µM (inactive) | > 68.4 µM (inactive) | 40.5 µM (inactive) | 98.2 µM (inactive) | 45.9 µM (inactive) | > 100 µM (inactive) | 49.7 µM (inactive) | 41.4 µM (inactive) | > 100 µM (inactive) | 36.7 µM (inactive)
COC(=O)[C@H](Cc1ccccc1)NC(=O)N(CCC#N)CCN(C(=O)N[C@@H](Cc1ccccc1)C(=O)OC)c1ccccc1 | 18.5 µM (inactive) | 28.2 µM (inactive) | 35.1 µM (inactive) | 20 µM (inactive) | > 100 µM (inactive) | – | 17.5 µM (inactive) | 38.5 µM (inactive) | 20.2 µM (inactive) | 30 µM (inactive) | 22.9 µM (inactive) | 17.5 µM (inactive) | 20.8 µM (inactive) | 32.2 µM (inactive) | 32.7 µM (inactive) | 20 µM (inactive) | 22.8 µM (inactive) | 22.5 µM (inactive) | 32.1 µM (inactive) | –
C=C(CCOC)CCC1CCCCC(=C)C1=O (stereo unspecified) | > 100 µM (inactive) | > 100 µM (inactive) | > 100 µM (inactive) | – | > 100 µM (inactive) | > 100 µM (inactive) | > 100 µM (inactive) | > 100 µM (inactive) | > 100 µM (inactive) | > 100 µM (inactive) | > 100 µM (inactive) | > 100 µM (inactive) | – | > 100 µM (inactive) | > 100 µM (inactive) | > 100 µM (inactive) | > 100 µM (inactive) | > 100 µM (inactive) | > 100 µM (inactive) | > 100 µM (inactive)
NC(=S)Nc1ccc2c(c1)oc1ccccc12 | > 100 µM (inactive) | > 100 µM (inactive) | > 100 µM (inactive) | > 100 µM (inactive) | > 100 µM (inactive) | > 100 µM (inactive) | > 100 µM (inactive) | 8.73 µM (inactive) | > 31.5 µM (inactive) | 39 µM (inactive) | 18.9 µM (inactive) | > 100 µM (inactive) | – | > 100 µM (inactive) | > 100 µM (inactive) | > 100 µM (inactive) | > 100 µM (inactive) | > 100 µM (inactive) | > 100 µM (inactive) | > 100 µM (inactive)
CCOC(=O)/C=C(/C=C\COC1CCCCO1)c1ccccc1 (stereo unspecified) | 55.2 µM (inactive) | > 100 µM (inactive) | 28.3 µM (inactive) | > 100 µM (inactive) | 96.2 µM (inactive) | 28.5 µM (inactive) | 31.3 µM (inactive) | 29 µM (inactive) | 20.8 µM (inactive) | 70.6 µM (inactive) | 35 µM (inactive) | 23.4 µM (inactive) | – | 22.9 µM (inactive) | 22.3 µM (inactive) | 33.7 µM (inactive) | 32.1 µM (inactive) | 15.4 µM (inactive) | 35.6 µM (inactive) | 15.8 µM (inactive)
CCOP(=O)(C[S+](C)[O-])O[C@@H]1C[C@H](C)CC[C@H]1C(C)C (stereo partly specified) | 4.47 µM (inactive) | – | 3.72 µM (inactive) | 3.63 µM (inactive) | 4.28 µM (inactive) | 3.4 µM (inactive) | 2.86 µM (inactive) | 3.08 µM (inactive) | 4.6 µM (inactive) | 3.92 µM (inactive) | 2.25 µM (inactive) | 7.28 µM (inactive) | 12.2 µM (inactive) | 0.434 µM (active) | 3.26 µM (inactive) | 2.88 µM (inactive) | 6.44 µM (inactive) | 1.77 µM (inactive) | 6.61 µM (inactive) | –
